Assay: Metabolic stability in rat liver microsomes assessed as half life
Assay type: ADME, Microsome

| SMILES | half-life |
| --- | --- |
| CNc1nc(NCc2ccc(NC(=O)c3ccc(F)cc3)cc2)c2cc(C)ccc2n1 | 6 min |
| Cc1ccc2c(NCc3ccc(NC(=O)c4ccc(F)cc4)cc3)nc(N3CCCCC3)nc2c1 | 3 min |
| CC(=O)c1ccc2c(NCc3ccc(NC(=O)c4ccc(F)cc4)cc3)nc(N(C)C)nc2c1 | 2 min |
| CNc1nc(NCc2ccc(NC(=O)c3ccc(C)cc3)cc2)c2ccccc2n1 | 16 min |
| Cc1ccc2c(NCc3ccc(NC(=O)c4ccc(F)cc4)cc3)nc(N3CCN(C)CC3)nc2c1 | 3 min |
| Cc1ccc2c(NCc3ccc(NC(=O)c4ccc(F)cc4)cc3)nc(N(C)C)nc2c1 | 12 min |
| Cc1ccc2c(NCc3ccc(NC(=O)c4ccc(F)cc4)cc3)nc(N3CCNCC3)nc2c1 | 5 min |
| CNc1nc(NCc2ccc(NC(=O)c3ccc(Cl)cc3)cc2)c2cc(C)ccc2n1 | 6 min |
| Cc1ccc2c(NCc3ccc(NC(=O)c4ccc(F)cc4)cc3)nc(N3CCOCC3)nc2c1 | 6 min |
| Cc1ccc2c(NCc3ccc(NC(=O)c4ccc(F)cc4)cc3)nc(N3CCC3)nc2c1 | 7 min |
| Cc1ccc2c(NCc3ccc(NC(=O)c4ccc(F)cc4)cc3)nc(N3CCCC3)nc2c1 | 2 min |
| CN(C)c1nc(NCc2ccc(NC(=O)c3ccc(F)cc3)cc2)c2ccc(CO)cc2n1 | 22 min |
| CN(C)Cc1ccc2c(NCc3ccc(NC(=O)c4ccc(F)cc4)cc3)nc(N(C)C)nc2c1 | 3 min |
| CNc1nc(NCc2ccc(NC(=O)c3ccc(F)cc3)cc2)c2ccccc2n1 | 21 min |
| CNc1nc(NCc2ccc(NC(=O)c3ccc(Cl)nc3)cc2)c2ccccc2n1 | 17 min |
| C=Cc1ccc2c(NCc3ccc(NC(=O)c4ccc(F)cc4)cc3)nc(N(C)C)nc2c1 | 6 min |
| CCc1ccc2c(NCc3ccc(NC(=O)c4ccc(F)cc4)cc3)nc(N(C)C)nc2c1 | 6 min |
| CNc1nc(NCc2ccc(NC(=O)c3ccc(Cl)nc3)cc2)c2cc(C)ccc2n1 | 13 min |
| CNc1nc(NCc2ccc(NC(=O)c3ccc(Cl)cc3)cc2)c2c(C)cccc2n1 | 12 min |

| SMILES | half-life |
| --- | --- |
| CNc1nc(NCc2ccc(NC(=O)c3ccc(Cl)nc3)cc2)c2c(C)cccc2n1 | 2 min |
| Cc1ccc2c(NCc3ccc(NC(=O)c4ccc(F)cc4)cc3)nc(N3CCNC(C)(C)C3)nc2c1 | 3 min |
| CNc1nc(NCc2ccc(NC(=O)c3ccc(Cl)cc3)cc2)c2cccc(C)c2n1 | 11 min |
| Cc1ccc2c(NCc3ccc(NC(=O)c4ccc(F)cc4)cc3)nc(N3CCN[C@H](C)C3)nc2c1 | 4 min |
| CNc1nc(NCc2ccc(NC(=O)c3ccc(C(F)(F)F)cc3)cc2)c2ccccc2n1 | 30 min |
| CNc1nc(NCc2ccc(NC(=O)c3cccc(Cl)c3)cc2)c2ccccc2n1 | 15 min |
| CNc1nc(NCc2ccc(NC(=O)c3ccc(F)cc3)cc2)c2cccc(C)c2n1 | 10 min |
| CCCNc1nc(NCc2ccc(NC(=O)c3ccc(F)cc3)cc2)c2ccc(C)cc2n1 | 6 min |
| CNc1nc(NCc2ccc(NC(=O)c3ccc(Cl)cc3)cc2)c2ccccc2n1 | 30 min |
| CNc1nc(NCc2ccc(NC(=O)c3ccc(C#N)cc3)cc2)c2ccccc2n1 | 10 min |
| CNc1nc(NCc2ccc(NC(=O)c3ccc(Cl)nc3)cc2)c2cccc(C)c2n1 | 22 min |
| CNc1nc(NCc2ccc(NC(=O)c3ccc(Cl)cc3)cc2)c2ccc(C)cc2n1 | 18 min |
| CNc1nc(NCc2ccc(NC(=O)c3ccc(-c4ccccc4)cc3)cc2)c2ccccc2n1 | 16 min |
| CNc1nc(NCc2ccc(NC(=O)c3ccc(F)cc3)cc2)c2ccc(C)cc2n1 | > 30 min |
| CNc1nc(NCc2ccc(NC(=O)c3ccc(Cl)nc3)cc2)c2ccc(C)cc2n1 | 8 min |
| CN(C)c1nc(NCc2ccc(NC(=O)c3ccc(F)cc3)cc2)c2ccc(C#N)cc2n1 | 11 min |
| CN(C)c1nc(NCc2ccc(NC(=O)c3ccc(F)cc3)cc2)c2ccc(C=O)cc2n1 | 3 min |
| CNc1nc(NCc2ccc(NC(=O)c3ccc(F)cc3)cc2)c2c(C)cccc2n1 | 15 min |
| CC(O)c1ccc2c(NCc3ccc(NC(=O)c4ccc(F)cc4)cc3)nc(N(C)C)nc2c1 (racemic) | 6 min |

From ChEMBL document CHEMBL1156802, “Design and synthesis of novel diaminoquinazolines with in vivo efficacy for beta-catenin/T-cell transcriptional factor 4 pathway inhibition” (J Med Chem, 2010)
